Reference: ChEMBL document CHEMBL1135889, “Novel 4-anilinoquinazolines with C-7 basic side chains: design and structure activity relationship of a series of potent, orally active, VEGF receptor tyrosine kinase inhibitors” (J Med Chem, 2002)
≈ marks a conversion by molar mass, not a printed value.

What was measured:
[1] = Plasma levels following administration of 100 mg/Kg perorally and concentration in plasma 24 hr after administration; assay type: ADME, cell-free; settings: po, read-out: Plasma level
[2] = Plasma levels following administration of 100 mg/Kg perorally and concentration in plasma 6 hr after administration; assay type: ADME, cell-free; settings: po, read-out: Plasma level
[3] = target: Epidermal growth factor receptor (Homo sapiens, UniProt P00533); test: Inhibition of epidermal growth factor receptor kinase activity […] of ATP
Chain of Epidermal growth factor receptor (P00533 whole entry): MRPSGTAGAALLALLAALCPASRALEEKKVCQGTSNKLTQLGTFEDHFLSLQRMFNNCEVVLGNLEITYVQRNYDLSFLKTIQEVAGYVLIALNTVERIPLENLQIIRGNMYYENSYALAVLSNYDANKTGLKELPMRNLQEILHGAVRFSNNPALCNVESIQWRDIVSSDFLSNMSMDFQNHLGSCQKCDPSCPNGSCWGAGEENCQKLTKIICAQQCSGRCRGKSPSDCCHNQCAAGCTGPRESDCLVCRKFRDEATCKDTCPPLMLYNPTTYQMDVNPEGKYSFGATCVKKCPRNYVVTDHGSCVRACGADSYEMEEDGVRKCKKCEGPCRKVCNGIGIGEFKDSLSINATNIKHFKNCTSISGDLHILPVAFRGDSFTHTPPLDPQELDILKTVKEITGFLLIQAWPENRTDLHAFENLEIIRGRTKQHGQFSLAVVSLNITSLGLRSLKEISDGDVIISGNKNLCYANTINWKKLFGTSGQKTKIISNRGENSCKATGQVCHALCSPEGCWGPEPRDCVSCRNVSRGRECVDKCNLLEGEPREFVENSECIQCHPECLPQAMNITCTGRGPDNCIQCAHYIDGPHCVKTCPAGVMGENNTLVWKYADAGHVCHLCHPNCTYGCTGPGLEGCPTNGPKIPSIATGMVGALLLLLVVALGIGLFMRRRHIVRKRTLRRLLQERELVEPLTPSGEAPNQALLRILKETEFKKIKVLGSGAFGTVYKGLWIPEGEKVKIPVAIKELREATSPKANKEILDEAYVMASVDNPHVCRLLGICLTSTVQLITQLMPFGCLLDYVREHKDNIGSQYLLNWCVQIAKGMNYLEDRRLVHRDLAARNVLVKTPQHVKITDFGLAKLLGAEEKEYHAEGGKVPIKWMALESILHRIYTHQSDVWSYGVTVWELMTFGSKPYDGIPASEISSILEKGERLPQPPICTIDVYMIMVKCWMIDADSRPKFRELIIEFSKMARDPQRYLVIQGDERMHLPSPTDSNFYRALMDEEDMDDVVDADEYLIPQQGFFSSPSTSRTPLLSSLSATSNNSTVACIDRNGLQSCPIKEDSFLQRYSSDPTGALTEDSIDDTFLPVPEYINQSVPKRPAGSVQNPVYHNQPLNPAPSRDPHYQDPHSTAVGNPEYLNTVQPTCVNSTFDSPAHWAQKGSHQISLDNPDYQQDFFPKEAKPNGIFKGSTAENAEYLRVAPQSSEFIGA

[4] = test system: HUVEC; test: Inhibition of basal unstimulated growth of human endothelial cell; assay type: functional, cell-based
[5] = target: Vascular endothelial growth factor receptor (Homo sapiens, UniProt P17948+P35916+P35968); test: Inhibition of human endothelial cell growth stimulate by vascular endothelial growth factor
[6] = Plasma levels following administration of 50 mg/Kg perorally and concentration in plasma 24 hr after administration; assay type: ADME, cell-free; settings: po, read-out: Plasma level
[7] = target: Vascular endothelial growth factor receptor 2 (Homo sapiens, UniProt P35968); test: Inhibition of vascular endothelial growth factor receptor 2 kinase activity […]
Chain of Vascular endothelial growth factor receptor 2 (P35968 whole entry): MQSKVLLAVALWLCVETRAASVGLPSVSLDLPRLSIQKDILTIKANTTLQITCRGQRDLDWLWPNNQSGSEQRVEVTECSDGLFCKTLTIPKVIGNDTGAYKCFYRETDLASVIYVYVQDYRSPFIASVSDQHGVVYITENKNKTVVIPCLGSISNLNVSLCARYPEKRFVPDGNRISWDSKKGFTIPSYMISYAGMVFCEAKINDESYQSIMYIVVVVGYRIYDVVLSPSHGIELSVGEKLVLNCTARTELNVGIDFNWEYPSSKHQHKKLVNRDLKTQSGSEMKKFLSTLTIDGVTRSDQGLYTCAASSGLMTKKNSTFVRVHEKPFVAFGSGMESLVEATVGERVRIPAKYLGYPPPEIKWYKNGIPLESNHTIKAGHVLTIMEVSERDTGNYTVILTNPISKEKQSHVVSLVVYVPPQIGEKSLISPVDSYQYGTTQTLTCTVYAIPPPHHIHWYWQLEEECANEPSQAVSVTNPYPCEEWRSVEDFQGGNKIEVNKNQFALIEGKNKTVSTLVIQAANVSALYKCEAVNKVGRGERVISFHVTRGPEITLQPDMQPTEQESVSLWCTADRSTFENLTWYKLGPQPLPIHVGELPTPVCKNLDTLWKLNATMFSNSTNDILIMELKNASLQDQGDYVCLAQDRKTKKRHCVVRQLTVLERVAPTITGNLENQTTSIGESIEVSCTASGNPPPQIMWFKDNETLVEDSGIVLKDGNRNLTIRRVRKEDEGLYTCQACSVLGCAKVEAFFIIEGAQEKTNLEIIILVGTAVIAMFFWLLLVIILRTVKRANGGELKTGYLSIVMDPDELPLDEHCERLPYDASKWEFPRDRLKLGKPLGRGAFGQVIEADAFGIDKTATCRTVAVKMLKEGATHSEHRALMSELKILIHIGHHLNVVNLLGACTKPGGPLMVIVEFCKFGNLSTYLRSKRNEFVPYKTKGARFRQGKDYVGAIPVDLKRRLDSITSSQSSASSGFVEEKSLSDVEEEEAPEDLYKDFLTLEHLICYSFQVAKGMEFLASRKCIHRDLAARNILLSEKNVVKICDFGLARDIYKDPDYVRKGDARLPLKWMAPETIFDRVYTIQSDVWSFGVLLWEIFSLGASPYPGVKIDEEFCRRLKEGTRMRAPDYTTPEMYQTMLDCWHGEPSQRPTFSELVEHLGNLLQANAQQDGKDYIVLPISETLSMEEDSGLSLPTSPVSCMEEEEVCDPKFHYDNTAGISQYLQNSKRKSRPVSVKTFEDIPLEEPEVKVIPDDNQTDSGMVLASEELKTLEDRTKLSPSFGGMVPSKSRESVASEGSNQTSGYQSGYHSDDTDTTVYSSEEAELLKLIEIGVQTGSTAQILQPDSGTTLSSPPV

[8] = Plasma levels following administration of 50 mg/Kg perorally and concentration in plasma 6 hr after administration; assay type: ADME, cell-free; settings: po, read-out: Plasma level
[9] = target: Fibroblast growth factor receptor 1 (Homo sapiens, UniProt P11362)
Chain of Fibroblast growth factor receptor 1 (P11362 whole entry): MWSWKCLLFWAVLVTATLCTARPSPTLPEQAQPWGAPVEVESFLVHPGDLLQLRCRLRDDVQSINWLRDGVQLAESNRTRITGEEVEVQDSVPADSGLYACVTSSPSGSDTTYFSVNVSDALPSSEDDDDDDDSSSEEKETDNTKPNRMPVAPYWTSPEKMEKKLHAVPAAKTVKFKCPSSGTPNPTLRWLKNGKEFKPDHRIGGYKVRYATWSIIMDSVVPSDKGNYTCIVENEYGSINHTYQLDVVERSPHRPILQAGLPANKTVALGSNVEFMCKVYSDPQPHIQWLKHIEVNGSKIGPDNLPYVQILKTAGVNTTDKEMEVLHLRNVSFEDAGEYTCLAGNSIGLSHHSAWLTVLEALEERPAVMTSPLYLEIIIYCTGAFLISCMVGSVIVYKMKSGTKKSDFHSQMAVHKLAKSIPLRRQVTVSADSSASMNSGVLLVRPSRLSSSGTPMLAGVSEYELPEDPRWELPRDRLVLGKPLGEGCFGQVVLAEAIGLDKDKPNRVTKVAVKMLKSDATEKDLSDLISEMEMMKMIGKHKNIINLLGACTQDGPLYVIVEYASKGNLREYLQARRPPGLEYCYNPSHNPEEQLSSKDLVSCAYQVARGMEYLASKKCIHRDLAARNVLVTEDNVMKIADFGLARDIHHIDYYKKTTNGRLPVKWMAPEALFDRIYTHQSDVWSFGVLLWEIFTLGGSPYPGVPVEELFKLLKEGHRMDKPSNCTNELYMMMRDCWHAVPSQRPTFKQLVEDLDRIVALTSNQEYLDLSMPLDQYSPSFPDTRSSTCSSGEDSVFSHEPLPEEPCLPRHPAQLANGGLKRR
Description: Inhibition fibroblast growth factor receptor TK kinase activity at a concentration of 2 uM

[10] = Bioavailability in rat after oral dose at 50 mg/kg free base; assay type: ADME, organism-based; settings: in vivo
[11] = Plasma levels following administration of 50 mg/Kg perorally and concentration of compound in plasma 24 hr after administration; assay type: ADME, cell-free; settings: po, read-out: Plasma level
[12] = Pharmacokinetic parameters in dog, and clearance value reported after oral administration of 50 mg/Kg.; assay type: ADME, organism-based, Canis lupus familiaris; settings: in vivo
[13] = (§1) Binding affinity of serum protein in mouse.; assay type: ADME, organism-based; settings: read-out: %Bound_Plasma (converted)
[14] = (§2) Binding affinity to serum protein in rat; assay type: ADME, organism-based; settings: read-out: %Bound_Plasma (converted)
[15] = solubility was determined using free base at pH 7.4; assay type: physicochemical; settings: buffer
[16] = pKa value at a pH of […].; assay type: physicochemical; settings: pH 7.4
[17] = target: Cyclin-dependent kinase 2 (Homo sapiens, UniProt P24941); test: Inhibition of Cyclin-dependent kinase 2 (CDK2) at ATP concentration <Km
[18] = target: Receptor tyrosine-protein kinase erbB-2 (Homo sapiens, UniProt P04626); test: Inhibition of ERBB2 receptor kinase at ATP concentration <Km
[19] = target: Insulin-like growth factor 1 receptor (Homo sapiens, UniProt P08069); test: Inhibition of Insulin-like growth factor I receptor at ATP <Km
[20] = target: Dual specificity mitogen-activated protein kinase kinase; MEK1/2 (Homo sapiens, UniProt P36507+Q02750); test: Inhibition of Mitogen activated protein kinase (MEK) at ATP <Km; assay type: protein assay
[21] = target: Serine/threonine-protein kinase AKT (Homo sapiens, UniProt P31751+Q9Y243+P31749); test: Inhibition of Protein kinase B (AKT) at ATP <Km; assay type: protein assay
[22] = target: T1, 3-phosphoinositide-dependent protein kinase 1 (Homo sapiens, UniProt O15530); test: Inhibition of receptor kinase activity against PDK (phospho-inositide dependent kinase) at ATP <Km
T1 sequence (O15530 whole entry): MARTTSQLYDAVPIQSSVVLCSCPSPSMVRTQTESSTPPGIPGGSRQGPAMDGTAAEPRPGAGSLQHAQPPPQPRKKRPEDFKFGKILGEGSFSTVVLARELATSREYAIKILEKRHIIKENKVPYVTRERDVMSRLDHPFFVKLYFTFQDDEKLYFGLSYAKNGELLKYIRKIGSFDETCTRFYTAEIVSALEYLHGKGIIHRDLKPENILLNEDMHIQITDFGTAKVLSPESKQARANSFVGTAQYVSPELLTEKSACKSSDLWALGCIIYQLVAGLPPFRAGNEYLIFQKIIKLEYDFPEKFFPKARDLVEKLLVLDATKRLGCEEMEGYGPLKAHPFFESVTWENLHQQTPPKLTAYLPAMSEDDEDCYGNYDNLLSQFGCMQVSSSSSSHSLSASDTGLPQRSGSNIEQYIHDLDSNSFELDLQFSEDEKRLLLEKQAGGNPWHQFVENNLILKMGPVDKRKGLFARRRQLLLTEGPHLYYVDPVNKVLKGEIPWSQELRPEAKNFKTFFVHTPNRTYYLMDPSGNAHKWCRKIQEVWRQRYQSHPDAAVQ

[23] = target: Angiopoietin-1 receptor (Homo sapiens, UniProt Q02763); test: Inhibition of Tyrosine protein kinase TIE-2 at ATP <Km
[24] = physchem; settings: octanol/water, pH 7.4
[25] = Pharmacokinetic parameter bioavailability in dog was reported after oral administration of 30 mg/Kg measured on free base; settings: in vivo
[26] = Pharmacokinetic parameter half-life in dog was reported after intravenous administration of 5 mg/Kg measured on free base; settings: in vivo
[27] = Pharmacokinetic parameter half-life in rat was reported after intravenous administration of 5 mg/Kg measured on free base; settings: in vivo
[28] = solubility was determined using free base at pH 7; assay type: physicochemical; settings: buffer
[29] = pKa value at a pH of […].value ranges from […]-[…].; assay type: physicochemical; settings: pH 7.4
[30] = target: Vascular endothelial growth factor receptor 1 (Homo sapiens, UniProt P17948); test: Inhibition of fms-like tyrosine kinase receptor (Flt-1) kinase activity […] of ATP
Chain of Vascular endothelial growth factor receptor 1 (P17948 whole entry): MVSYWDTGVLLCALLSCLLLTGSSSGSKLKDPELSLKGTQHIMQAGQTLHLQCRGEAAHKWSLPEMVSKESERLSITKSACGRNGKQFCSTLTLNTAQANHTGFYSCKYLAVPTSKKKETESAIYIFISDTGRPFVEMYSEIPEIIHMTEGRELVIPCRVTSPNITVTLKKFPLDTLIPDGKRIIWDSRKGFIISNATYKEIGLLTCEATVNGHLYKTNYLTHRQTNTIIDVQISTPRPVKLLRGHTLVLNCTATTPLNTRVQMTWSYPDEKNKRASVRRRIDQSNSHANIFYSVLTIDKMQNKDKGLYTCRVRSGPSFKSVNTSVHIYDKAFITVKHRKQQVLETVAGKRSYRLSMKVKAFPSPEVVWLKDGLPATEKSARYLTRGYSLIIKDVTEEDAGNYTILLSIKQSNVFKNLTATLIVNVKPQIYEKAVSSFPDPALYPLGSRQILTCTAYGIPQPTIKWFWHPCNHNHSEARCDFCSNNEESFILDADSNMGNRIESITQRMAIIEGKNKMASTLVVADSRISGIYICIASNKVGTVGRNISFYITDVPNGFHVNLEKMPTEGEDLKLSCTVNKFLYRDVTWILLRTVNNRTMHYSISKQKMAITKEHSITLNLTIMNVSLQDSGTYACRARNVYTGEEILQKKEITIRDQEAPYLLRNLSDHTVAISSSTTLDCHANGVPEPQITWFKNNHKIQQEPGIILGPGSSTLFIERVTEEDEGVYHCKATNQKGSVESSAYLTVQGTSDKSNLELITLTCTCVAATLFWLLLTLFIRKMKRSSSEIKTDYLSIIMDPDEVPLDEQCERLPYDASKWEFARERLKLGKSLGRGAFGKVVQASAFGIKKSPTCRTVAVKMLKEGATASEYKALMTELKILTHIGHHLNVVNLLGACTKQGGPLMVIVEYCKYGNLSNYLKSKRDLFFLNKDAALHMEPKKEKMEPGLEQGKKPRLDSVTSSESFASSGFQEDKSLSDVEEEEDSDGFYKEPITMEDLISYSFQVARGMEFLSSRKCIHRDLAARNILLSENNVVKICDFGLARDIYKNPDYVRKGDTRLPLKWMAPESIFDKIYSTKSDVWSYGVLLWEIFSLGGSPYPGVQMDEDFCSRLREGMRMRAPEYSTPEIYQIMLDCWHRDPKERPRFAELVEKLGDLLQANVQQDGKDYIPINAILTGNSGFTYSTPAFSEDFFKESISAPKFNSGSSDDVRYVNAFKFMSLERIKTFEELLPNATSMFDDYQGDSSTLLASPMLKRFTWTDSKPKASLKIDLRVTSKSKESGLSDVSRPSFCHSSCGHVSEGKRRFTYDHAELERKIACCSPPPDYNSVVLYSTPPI

[31] = physchem; settings: pH 7.4
[32] = organism: Mus musculus; test: as §1; assay type: functional, organism-based
[33] = organism: Rattus norvegicus; test: as §2; assay type: functional
[34] = Pharmacokinetic parameter bioavailability in rat was reported after oral administration of 50 mg/Kg measured on free base; assay type: ADME, organism-based; settings: in vivo
[35] = test system: Mus musculus; test: Inhibition of Established Calu-6 tumor xenografts implanted subcutaneously in athymic mice measured after 21 days of dosing of […] mg/kg perorally.; assay type: functional; settings: Calu-6, 504 h, route oral
[36] = test system: Mus musculus; test: Inhibition of Established Calu-6 tumor xenografts implanted subcutaneously in athymic mice measured after 21 days of dosing of 50 mg/kg perorally.; assay type: functional; settings: Calu-6, 504 h, route oral
[37] = test system: Mus musculus; test: Inhibition of Established Calu-6 tumor xenografts implanted subcutaneously in athymic mice measured after 21 days of dosing of 12.5 mg/kg perorally.; assay type: functional; settings: Calu-6, 504 h, route oral
[38] = test system: Mus musculus; test: Inhibition of Calu-6 tumor xenografts implanted subcutaneously in athymic mice measured after 21 days of dosing of 100 mg/kg perorally.; assay type: functional; settings: Calu-6, 504 h, route oral
[39] = Pharmacokinetic parameter half-life in dog was reported after intravenous administration of 5 mg/Kg measured on free base; settings: in vivo; remark: listed apart in the source
[40] = Pharmacokinetic parameter bioavailability in dog was reported after oral administration of 25 mg/Kg measured on free base; settings: in vivo

COc1cc2c(Nc3ccc(Cl)cc3F)ncnc2cc1OCCN1CCOCC1
concentration at 24 h [1]: 500 nM
concentration at 6 h [2]: 12000 nM
IC50 [3]: 400 nM
IC50 [4]: 5000 nM
IC50 [5]: 300 nM

COc1cc2c(Nc3ccc(Br)cc3F)ncnc2cc1OCCC1CCN(C)CC1
concentration at 24 h [6]: 2000 nM
IC50 [4]: 3000 nM
IC50 [7]: 6 nM
concentration at 6 h [8]: 3000 nM
IC50 [9]: 2100 nM

COc1cc2c(Nc3ccc(Br)cc3F)ncnc2cc1OCCn1ccnn1 [ZD-4190 FREE BASE]
bioavailability [10]: > 80%
concentration at 24 h [11]: 200 nM
CL/F [12]: 8.33 mL/min/kg
fraction unbound [13]: 0.02
fraction unbound [14]: 0.05
solubility [15]: 0.7 µM (≈ 0.321 µg/mL)
pKa [16]: 5.3
IC50 [17]: > 10000 nM
IC50 [18]: > 100000 nM
IC50 [19]: > 20000 nM
IC50 [20]: > 10000 nM
IC50 [21]: > 20000 nM
IC50 [22]: > 20000 nM
IC50 [23]: > 100000 nM
concentration at 6 h [8]: 14000 nM
logD [24]: 4.6
bioavailability [25]: < 5%
half-life [26]: 1.1 h
half-life [27]: 1.3 h

COc1cc2c(Nc3ccc(Cl)cc3F)ncnc2cc1OCCCN1CCN(C)CC1.Cl
concentration at 24 h [6]: 3000 nM
solubility [28]: 60 µM
pKa [29]: 7.9
IC50 [3]: 75 nM
IC50 [30]: 600 nM
IC50 [4]: 5000 nM
IC50 [5]: 50 nM
IC50 [7]: 20 nM
concentration at 6 h [8]: 5000 nM
IC50 [9]: 2100 nM
logD [24]: 2.4

COc1cc2c(Nc3ccc(Cl)cc3F)ncnc2cc1OCCN(C)c1ccncc1
concentration at 24 h [1]: 2000 nM
concentration at 6 h [2]: 4600 nM
IC50 [3]: 300 nM
IC50 [4]: 5000 nM
IC50 [5]: 200 nM

COc1cc2c(Nc3ccc(Cl)cc3F)ncnc2cc1OCCCN1CCOCC1
concentration at 24 h [1]: 800 nM
concentration at 6 h [2]: 4000 nM
solubility [28]: 20 µM (≈ 8.94 µg/mL)
IC50 [4]: 2000 nM
logD [24]: 3.4
pKa [31]: 7.2

COc1cc2/c(=N/c3ccc(Br)cc3F)nc[nH]c2cc1OCC1CCN(C)CC1
SPB [32]: 96%
SPB [33]: 90%

COc1cc2c(Nc3c(F)cc(Br)cc3F)ncnc2cc1OCC1CCNCC1
IC50 [3]: 450 nM
IC50 [30]: 800 nM
IC50 [4]: 3000 nM
IC50 [5]: 70 nM
IC50 [7]: 15 nM
IC50 [9]: 1900 nM

COc1cc2c(Nc3ccc(C)cc3F)ncnc2cc1OCC1CCN(C)CC1
IC50 [3]: 1000 nM
IC50 [30]: 500 nM
IC50 [4]: > 5000 nM
IC50 [5]: 65 nM
IC50 [7]: 25 nM
IC50 [9]: 13500 nM

COc1cc2c(Nc3ccc(Br)cc3F)ncnc2cc1OC[C@@H]1CCCN(C)C1
concentration at 24 h [6]: 2500 nM
IC50 [30]: 500 nM
IC50 [4]: 10000 nM
IC50 [5]: 60 nM
IC50 [7]: 1 nM
concentration at 6 h [8]: 5500 nM
IC50 [9]: 1800 nM

COc1cc2c(Nc3ccc(Br)cc3F)ncnc2cc1OCC1CCN(C)CC1.Cl
bioavailability [34]: > 50%
concentration at 24 h [11]: 3000 nM
solubility [15]: 330 µM
pKa [29]: 9.4
IC50 [4]: > 3000 nM
inhibition in vivo at 25 mg/kg [35]: 51%
inhibition in vivo at 50 mg/kg [36]: 67%
inhibition in vivo at 12.5 mg/kg [37]: 36%
concentration at 6 h [8]: 5500 nM
inhibition in vivo at 100 mg/kg [38]: 79%
logD [24]: 2.6
half-life [39]: 8.3 h
bioavailability [40]: > 50%
half-life [27]: 15 h

COCCOc1cc2ncnc(Nc3ccc(Cl)cc3F)c2cc1OC
concentration at 24 h [1]: < 100 nM
concentration at 6 h [2]: 12000 nM
IC50 [3]: 100 nM
IC50 [4]: 5000 nM
IC50 [5]: 40 nM
